In patent publication US11510876B2, “In vivo targeting of extracellular vesicles” (Mayo Foundation for Medical Education and Research, priority 2019, dated 2022):

How the values were obtained:
[1] = test system: ^89Zr labeled PC-3 derived exosomes; test: PET imaging of methylene blue mediated homing of intravenously injected 89Zr labeled exosomes to the injected hind paw (FIG. 11); type: in vivo, mouse; details: 1% methylene blue in Lactated Ringer's Solution injected in hind limb paw 1 h after i.v. exosomes; PET 1 h later; opposite paw (Ringer's only) showed no accumulation
Experimental: For PET image 456, the ^89Zr labeled PC-3 derived exosomes were intravenously injected (via tail vein). Then after one hour, 1% methylene blue (in Lactated Ringer's Solution) was injected in a hind limb paw. The opposite hind limb paw received a methylene blue-free and sterile Lactated Ringer's Solution. One hour after administering the methylene blue solution, the PET image 456 was taken. […] Thus, methylene blue homed the ^89Zr labeled PC-3 derived exosomes from circulation to the paw region, effectively showing that the ^89Zr labeled PC-3 derived exosomes targeted methylene blue.

[2] = test system: SK-N-SH brain cancer (bone marrow metastasis) derived exosomes; test: PET imaging of methylene blue mediated homing of intravenously injected 89Zr labeled exosomes to the injected hind paw (FIG. 13); type: in vivo, mouse; details: 1% methylene blue in hind limb paw 1 h after i.v. exosomes; PET 1 h later; opposite paw (Ringer's only) showed no accumulation
Experimental: (§1) FIG. 13 illustrates methylene blue was able to home exosomes irrespective of their cellular origin. PET image 550 and 554 was taken one hour after the mouse was intravenously injected (via tail vein) with the ^89Zr labeled A549 lung cancer derived exosomes and SK-N-SH brain cancer (bone marrow metastasis) derived exosomes, respectively. […] Then after one hour, 1% methylene blue (in Lactated Ringer's Solution) was injected in a hind limb paw. The opposite hind limb paw received a methylene blue-free and sterile Lactated Ringer's Solution. One hour after administering the methylene blue solution, the PET image 552 and 556 was taken. […] Thus, the methylene blue homed the ^89Zr labeled A549 and SK-N-SH derived exosomes from circulation showing that it can home extracellular vesicles independent of their cellular origin.

[3] = test system: ^89Zr labeled A549 lung cancer derived exosomes; test: as above; type: in vivo, mouse; details: 1% methylene blue in hind limb paw 1 h after i.v. exosomes; PET 1 h later; opposite paw (Ringer's only) showed no accumulation
Experimental: as §1

[4] = test system: ^89Zr labeled stem cell derived exosomes; test: PET imaging of methylene blue mediated homing of intravenously injected 89Zr labeled exosomes to the injected hind paw (FIG. 11); type: in vivo, mouse; details: 1% methylene blue in Lactated Ringer's Solution injected in hind limb paw 1 h after i.v. exosomes; PET 1 h later; opposite paw (Ringer's only) showed no accumulation
Excerpt: FIG. 11 illustrates four PET images of injected ^89Zr labeled exosomes in mice. PET images 450, 452 utilized stem cell derived exosomes, whereas PET images 454, 456 illustrate prostate cancer (PC-3) derived exosomes. Both groups of exosomes were labeled with ^89Zr, a positron emitter, which allows the exosomes to be tracked within the mouse by PET imaging. As illustrated in some or all of the PET images 450, 452, 454, 456, the heart/lungs 460, the liver 462, the gut 464/468 and 466/470 show “hotspots” of the ^89Zr labeled exosomes (homing agent mediated accumulation zones of the ^89Zr labeled exosomes). […] For PET image 452, the ^89Zr labeled stem cell derived exosomes were intravenously injected (via tail vein). Then after one hour, 1% methylene blue (in Lactated Ringer's Solution) was injected in a hind limb paw. The opposite hind limb paw received a methylene blue-free and sterile Lactated Ringer's Solution. One hour after administering the methylene blue solution, the PET image 452 was taken. […] Thus, the methylene blue homed the ^89Zr linked stem cell derived exosomes from circulation, effectively showing that the ^89Zr labeled stem cell derived exosomes targeted methylene blue.

extracellular vesicles = test: Homing of extracellular vesicles to the target site by an injected homing agent; type: in vivo; details: subcutaneous area in foot pad of a mouse, 500 ng also printed as 1.6 nmol
Excerpt: We have discovered that non-toxic doses of phenothiazine derivatives or polyethylene glycols are useful for the homing of exogenous extracellular vesicles to specific tissues in the body. This discovery has many potential applications in therapy and diagnosis in its ability to spatially concentrate extracellular vesicles. These methods can improve the homing of extracellular vesicles to diseased tissues, as well as enriched sampling and extraction of extracellular vesicles for diagnostics at low cost. Rather than using extensively modified extracellular vesicles (e.g., with biological and/or chemical modifications), which can be complex and costly, extracellular vesicles can be targeted by using little to no modification of the extracellular vesicles themselves. […] Our initial findings show broad applicability with regard to the extracellular vesicles type/source and the target tissue in the context of homing using phenothiazine derivatives or polyethylene glycols. At present, the homing is effective with as low as 500 ng (1.6 nmol) of methylene blue injected at the target site. In this example, the target site is the subcutaneous area in foot pad of a mouse, with good perfusion of the methylene blue, so the effective amount of methylene blue for extracellular vesicle homing could be much lower than 500 ng (1.6 nmol).

[5] = test system: ^89Zr labeled stem cell derived exosomes; test: Time-lapse PET imaging of the bio-distribution of 89Zr labeled exosomes after methylene blue paw injections (FIG. 12); type: in vivo, mouse
Experimental: FIG. 12 illustrates four time-lapse PET images showing the bio-distribution of injected ^89Zr labeled stem cell derived exosomes in a mouse. Similarly to the experiment illustrated in FIG. 11, stem cell derived exosomes were labeled with ^89Zr, a positron emitter, which allows the exosomes to be tracked within the mouse by PET imaging. Then, the ^89Zr labeled stem cell derived exosomes were injected intravenously into the mouse, and subsequently imaged thirty minutes after the injection, shown in PET image 500. Illustrated in PET image 500, and also the other PET images 502, 504, 506, are “hotspots” of the administered ^89Zr labeled stem cell derived exosomes (homing agent mediated accumulation zones of the ^89Zr labeled exosomes) at specific locations within the mouse (e.g., the heart 510, the liver 512, and the gut 514). […] Thus, the ^89Zr labeled stem cell derived exosomes were effectively homed to the tissue that contained methylene blue. After administering the methylene blue solution, 20 additional hours were lapsed before completing a second imaging of the mouse (at PET image 504). […] Then, immediately after acquiring PET image 504, the mouse was injected with the methylene blue solution at the hind paw (designated numeral 520), opposite the first hind paw injected with methylene blue (designated numeral 516). One hour after the second injection at the opposite hind paw at reference numeral 520, PET image 506 was acquired.

In the case of `CN(C)c1ccc2nc3ccc(=[N+](C)C)cc-3sc2c1` [methylene blue], the “accumulation of ^89Zr labeled PC-3 derived exosomes in the hind paw that received methylene blue” value [1] is reported as “significant accumulation”, the “accumulation of ^89Zr labeled SK-N-SH derived exosomes in the hind paw that received methylene blue (PET image 556)” value [2] is reported as “significant accumulation” and the “accumulation of ^89Zr labeled A549 derived exosomes in the hind paw that received methylene blue (PET image 552)” value [3] is reported as “significant accumulation”. The “accumulation of ^89Zr labeled stem cell derived exosomes in the hind paw that received methylene blue” value [4] was “significant accumulation”, the “lowest amount at which homing is effective” value (extracellular vesicles) was 500 ng and the “homing of exosomes to methylene blue injection sites (PET image 502)” value ([5]; 1% methylene blue injected in a hind paw and a front paw 19 hours after i.v. exosomes, imaged 3 h post-methylene blue injection) was “homing of exosome to hind paw”. The “signal from exosomes at methylene blue injection sites (PET image 504)” value ([5]; 20 additional hours after the methylene blue injection, hind paw and front paw) was “persistence of signal” and the “accumulation of exosomes at second methylene blue injection site, opposite hind paw (PET image 506)” value ([5]; second methylene blue injection about two days after exosome injection, PET one hour later) was “accumulated at the target site 520”.
